From patent US7718781B2, “Hydroxypyridonate and hydroxypyrimidinone chelating agents” (The Regents of the University of California, priority 2001, dated 2010)

Experiments:
[1] = Gd(III) formation constants / pGd (spectrophotometric titration); assay type: physicochemical
Method: The term, “pGd,” as used herein is −log10[Gd^III]free at pH=7.4, and pre-equilibrium concentrations of [L]=10 μM, [Gd^III]=1 μM.
The Bjerrum method can be used for metal complex stability measurements (pH titrations of ligand and metal+ligand). Competition titrations with DTPA can be performed to determine the stability of very stable complexes where direct pH titration methods are inappropriate. Spectrophotometric techniques can be used to monitor metal-ligand complexation reactions, which give rise to changes in the Vis/UV spectra relative to the parent metal and ligand species. With digitally-recording automated spectrophotometeric titrators, factor analysis of the Vis/UV spectra readily determined the species in solution, their individual spectra and the equilibrium constants which interrelate them.
Data for the spectrophotometric determination of formation constants for the compounds of the invention (e.g., Tren-Me2-5,4-HOPY) with gadolinium are generally collected over a pH range of 2-8.
The formation constants are defined by eq 3:
The spectrophotometric data is refined using a model. […]
The pGd values are defined by eq 4: pGd=−log[Gd]free at pH 7.4 for [Gd]=1 μM, [L]=10 μM (4) A pM value can be calculated for many conditions, but it is generally preferable to calculate it for conditions relevant to biological considerations. […]

[2] = literature reports; cited from earlier work
[3] = Experimental determination of water solubility (UV-Vis of saturated solution); assay type: physicochemical
Method: To attain neutral pH, a 0.01 M solution of buffer (HEPES, pKa 7.55) in 0.1 M KCl was made in its acidic form and neutralized to pH 7 with KOH. A dilute solution (of the metal complex) of known concentration was prepared and the UV-Vis spectrum acquired. The extinction coefficient (ε) at the maximum absorbance (at wavelength typically 320-360 nm) was then calculated using Beer-Lambert's law. A saturated solution of the metal complex was then prepared and the UV-Vis spectrum acquired and the maximum absorbance (at wavelength typically 320-360 nm) recorded. In cases where the saturated solution produced extremely high absorbances, the saturated solution was diluted and then the spectrum recorded. Using the known ε, the concentration of the saturated solution was then determined. […] The spectra of the complexes at pH 7 are consistent with the known ML spectra observed from spectrophotometric solution thermodynamics studies of the metal-ligand complexation reactions and indicate the absence of free ligand (note: M=metal, L=ligand).
Typically, preliminary investigation of the minimum solubility of the complexes involves dissolving a known quantity of the complex in a precise volume of solvent. The visible disappearance of particulate matter, over time or instantaneous in some cases, is indicative of complete dissolution of the complex.

[4] = free complex in water, in vitro; cited from earlier work
[5] = cited from earlier work
rat hepatocytes = conditions: cited from earlier work
[6] = molecular target: human serum albumin (HSA) (Homo sapiens, UniProt P02768); conditions: cited from earlier work
mice = conditions: cited from earlier work
[7] = Water proton relaxivity (longitudinal relaxation rate, 20 MHz); assay type: physicochemical; conditions: 37° C.
Method: The efficacy of a paramagnetic complex as a possible MRI contrast agent depends on its ability to catalyze the nuclear magnetic relaxation rate of solvent protons (Lauffer, R. B., Chem. Rev., 87, 901 (1987); Tweedle, M. F.; Kumar, K. In Magnetic Resonance Imaging (MRI) Contrast Agents; Clarke, M. I., Sadler, P. J., Eds.; Springer: Berlin, Germany, Vol. 2, p. 1 (1999); Koenig et al., Prog. NMR Spectrosc., 22:487 (1990)). This property, which is measured in terms in relaxivity, r1p, is defined as the enhancement of the water proton longitudinal relaxation rate induced by a 1 mML^−1 solution of the paramagnetic compound at a given temperature and magnetic field strength (Aime et al., Chem. Soc. Rev., 27:19 (1998)).
In an exemplary assay, the longitudinal water proton relaxation rate at 20 MHz are measured (typically with a NMR spectrometer operating at 0.5 T) with a reproducibility of the T1 data to ±0.5%. Equipment for the control of temperature (with an accuracy of ±0.1° C.) during these measurements are employed.
Water proton relaxation measurements were carried out at 20 MHz with a Stelar Spinmaster Spectrometer (Mede, Pv, Italy) on 0.5-2 mM solutions of the Gd(III) complex. Spin-lattice relaxation times T1 were measured by the standard inversion recovery method with typical 90° pulse width of […], 16 experiments of 4 scans. The reproducibility of the data is ±1%. The temperature was controlled by a Stelar VTC-91 air-flow heater equipped with copper-constantan thermocouple (uncertainty ±0.1° C). The 1/T1 nuclear magnetic relaxation dispersion (NMRD) profiles of water protons were measured from 0.00024 to 1.2 T (corresponding to the range 0.01-50 MHz of proton Larmor frequencies) at 15, 25 and 39° C. using 1.5 mM solutions of the complex on the field-cycling Koenig-Brown relaxometer of the University of Torino (Italy). The temperature was controlled by circulating freon from an external bath and measured by a thermometer inserted into the freon close to the sample. The reproducibilities of the measured T1 values were estimated to be ±2%. […]

[8] = Ligand protonation constants (potentiometric titration); assay type: physicochemical
Method: The protonation constants for chelates of the invention are readily determined by potentiometric titrations. These constants are defined by eq 2:
As previously reported, (Turowski et al., Inorg. Chem., 27:474 (1988)) potentiometric titrations were performed using an automated apparatus consisting of a Accumet pH meter (models 925, 825MP or 15), a pH electrode (Orion Ross semi-micro combination, Cole Parmer semi-micro combination or Corning high performance combination electrodes), an autoburet (Metrohm 665 Dosimat or 702 SM Titrino) fitted with a 5 mL piston exchange unit and a jacketed Ar swept titration cell maintained at 25.0° C. by a Lauda K-2/R or Neslab RTE-111 constant temperature circulating bath. The electronic systems were integrated for automated collection with an IBM PC clone.
In this study, ligand and metal complex solutions were titrated from low to high pH and back again if possible. Titrations for the Zn/HOPY systems were not reversible, presumably due to the formation of mixed ML hydroxide complexes. […] Formation constants calculated from the potentiometric titration data were determined with the aid of a FORTRAN non-linear least-squares refinement program (BETA 90). […] Although this is a low concentration for potentiometric titrations, the buffer regions corresponding to the protonation steps are around neutral pH, and so could still be determined.

[9] = literature; cited from earlier work

Sequence of human serum albumin (HSA) (P02768 25-609): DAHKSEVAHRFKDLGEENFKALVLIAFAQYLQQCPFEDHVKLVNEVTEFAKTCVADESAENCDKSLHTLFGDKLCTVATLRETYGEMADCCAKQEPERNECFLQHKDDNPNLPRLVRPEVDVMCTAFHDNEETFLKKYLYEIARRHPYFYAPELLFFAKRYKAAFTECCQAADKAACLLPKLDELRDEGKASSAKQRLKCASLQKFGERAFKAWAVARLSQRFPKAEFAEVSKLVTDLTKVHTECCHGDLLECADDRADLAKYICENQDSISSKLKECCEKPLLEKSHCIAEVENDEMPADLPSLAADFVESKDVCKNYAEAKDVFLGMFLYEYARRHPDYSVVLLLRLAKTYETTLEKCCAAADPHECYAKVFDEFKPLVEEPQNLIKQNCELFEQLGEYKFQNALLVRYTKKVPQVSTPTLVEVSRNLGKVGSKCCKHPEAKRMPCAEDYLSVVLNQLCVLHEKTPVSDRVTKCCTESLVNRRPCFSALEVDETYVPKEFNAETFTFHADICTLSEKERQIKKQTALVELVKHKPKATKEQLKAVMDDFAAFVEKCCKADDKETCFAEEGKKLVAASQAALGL

## Cn1ccc(C(=O)NCCN(CCNC(=O)c2ccn(C)c(=O)c2O)CCNC(=O)c2ccn(C)c(=O)c2O)c(O)c1=O [Formula 7, tris[(3-hydroxy-1-methyl-2-oxo-1,2-didehydropyridine-4-carboxamido)ethyl]amine]
[1]; calculated for 1 μM Gd and 10 μM ligand (FIG. 5)
  pH range over which speciation in water is unchanged: 5.5-10
[2]
  solubility in water of the Gd(III) complex: about 0.1 mM
[3]
  Water Solubility (pH 7, 25° C.): 0.1 mM

## O=C([O-])CN(CCN(CC(=O)[O-])CC(=O)[O-])CCN(CC(=O)[O-])C(COCc1ccccc1)C(=O)[O-].[Gd+3] (stereo not drawn) [Gd-BOPTA]
[4]
  relaxivity in water: 4.4 mM⁻¹ s⁻¹
[5]
  relaxivity in rat plasma: 6.9 mM⁻¹ s⁻¹
Rat hepatocytes
  relaxivity in rat hepatocytes: 30 mM⁻¹ s⁻¹

## O=C([O-])CN(CCN(CC(=O)[O-])C[C@H](COP(=O)([O-])OC1CCC(c2ccccc2)(c2ccccc2)CC1)N(CC(=O)[O-])CC(=O)[O-])CC(=O)[O-].[Gd+3].[H+].[H+].[H+] [MS-325]
[4]
  relaxivity in water: 6.6 mM⁻¹ s⁻¹
[6]
  relaxivity of the HSA adduct: 42.0 mM⁻¹ s⁻¹

## Cn1ccc(C(=O)NCCN(CCNC(=O)c2ccn(C)c(=O)c2O)CCNC(=O)c2ccn(C)c(=O)c2O)c(O)c1=O [TREN-1-Me-HOPO, tris[(3-hydroxy-1-methyl-2-oxo-1,2-didehydropyridine-4-carboxamido)ethyl]amine]
mice
  toxicity to mice: low toxicity
[1]; pH 7.4, [Gd]=1 μM, [L]=10 μM
  pGd: 20.3
[7]
  relaxivity (r1): 10.5 mM⁻¹ s⁻¹
  relaxivity relative to [Gd(DTPA)(H2O)]: ~2.5 times
[8]
  pKa: 6.12
[9]
  number of coordinated water molecules (q): 2

## Cc1nc(C(=O)NCCN(CCNC(=O)c2nc(C)n(C)c(=O)c2O)CCNC(=O)c2nc(C)n(C)c(=O)c2O)c(O)c(=O)n1C [TREN-HOPY, Tris[(2,3-Dimethyl-5-hydroxy-6-carboxamido-4-pyrimidinone)ethyl]amine]
[8]
  pKa: 6.37
